Activity calls are given as the source filed them.
Experiments:
[1] = molecular target: Luciferin 4-monooxygenase (Photinus pyralis, UniProt P08659); test: inhibition of purified Photinus pyralis luciferase – biochemical, luminescence, dose response (AID 1891)
[2] = Luminescence Cell-Based Dose Confirmation HTS to Identify Inhibitors of Platelet Dense Granule Release. [Related pubchem assays: 1663 (Primary HTS), 1678 (Summary of Project)]; format: functional
[3] = Luminescence-based cell-based high throughput dose response assay to identify activators of the DAF-12 from the parasite S. stercoralis (ssDAF-12).; format: functional
[4] = molecular target: T1, Oxysterols receptor LXR-beta (Homo sapiens, UniProt P55055); test: LXR agonists, Gal4 luciferase reporter, dose response, counter-screen for ssDAF-12 agonist project, cell-based, luminescence, HEK293, S. stercoralis campaign (AID 720737); format: functional; conditions: read-out: IC50 (the source's name)
T1 sequence (P55055 whole entry): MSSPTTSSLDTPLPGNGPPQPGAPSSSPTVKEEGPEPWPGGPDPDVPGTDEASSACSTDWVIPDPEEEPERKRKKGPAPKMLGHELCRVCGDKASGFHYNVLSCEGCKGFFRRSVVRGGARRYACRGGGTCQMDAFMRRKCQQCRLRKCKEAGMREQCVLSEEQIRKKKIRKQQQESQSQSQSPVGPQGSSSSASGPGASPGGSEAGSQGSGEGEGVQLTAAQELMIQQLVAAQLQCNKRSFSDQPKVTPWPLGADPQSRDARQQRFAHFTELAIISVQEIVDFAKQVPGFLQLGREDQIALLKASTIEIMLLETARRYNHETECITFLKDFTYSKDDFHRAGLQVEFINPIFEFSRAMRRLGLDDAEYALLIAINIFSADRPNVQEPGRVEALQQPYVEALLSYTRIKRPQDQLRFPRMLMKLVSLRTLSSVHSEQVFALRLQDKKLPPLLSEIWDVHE

[5] = molecular target: T1, Oxysterols receptor LXR-beta; format: functional, cell-based
cells [6] = test: cells
[7] = molecular target: T2, Endoribonuclease toxin MazF (Escherichia coli K-12, UniProt P0AE70); test: activation of MazEF endoribonuclease cleavage – biochemical, fluorescence, single-stranded RNA substrate, uHTS hits, dose response (AID 588481); format: functional
T2 sequence (P0AE70 whole entry): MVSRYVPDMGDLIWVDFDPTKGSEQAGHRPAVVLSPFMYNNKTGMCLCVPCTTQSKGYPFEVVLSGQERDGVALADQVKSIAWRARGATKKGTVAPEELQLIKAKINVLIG

[8] = molecular target: T2, Endoribonuclease toxin MazF; test: substrate-only fluorescence increase artefacts – biochemical, single-stranded RNase substrate, counter-screen for MazEF activator project, dose response (AID 588502); format: functional
[9] = viability loss in HepG2 hepatoma cells – cell-based, ATP luminescence, cherry-pick, activator set 2, cytotoxicity control, dose response (AID 1053143); format: functional
[10] = molecular target: Disintegrin and metalloproteinase domain-containing protein 17 (Homo sapiens, UniProt P78536); test: exosite inhibitors of ADAM17, dose response, biochemical (AID 743260)
Chain of Disintegrin and metalloproteinase domain-containing protein 17 (P78536 whole entry, the tested form may be a part): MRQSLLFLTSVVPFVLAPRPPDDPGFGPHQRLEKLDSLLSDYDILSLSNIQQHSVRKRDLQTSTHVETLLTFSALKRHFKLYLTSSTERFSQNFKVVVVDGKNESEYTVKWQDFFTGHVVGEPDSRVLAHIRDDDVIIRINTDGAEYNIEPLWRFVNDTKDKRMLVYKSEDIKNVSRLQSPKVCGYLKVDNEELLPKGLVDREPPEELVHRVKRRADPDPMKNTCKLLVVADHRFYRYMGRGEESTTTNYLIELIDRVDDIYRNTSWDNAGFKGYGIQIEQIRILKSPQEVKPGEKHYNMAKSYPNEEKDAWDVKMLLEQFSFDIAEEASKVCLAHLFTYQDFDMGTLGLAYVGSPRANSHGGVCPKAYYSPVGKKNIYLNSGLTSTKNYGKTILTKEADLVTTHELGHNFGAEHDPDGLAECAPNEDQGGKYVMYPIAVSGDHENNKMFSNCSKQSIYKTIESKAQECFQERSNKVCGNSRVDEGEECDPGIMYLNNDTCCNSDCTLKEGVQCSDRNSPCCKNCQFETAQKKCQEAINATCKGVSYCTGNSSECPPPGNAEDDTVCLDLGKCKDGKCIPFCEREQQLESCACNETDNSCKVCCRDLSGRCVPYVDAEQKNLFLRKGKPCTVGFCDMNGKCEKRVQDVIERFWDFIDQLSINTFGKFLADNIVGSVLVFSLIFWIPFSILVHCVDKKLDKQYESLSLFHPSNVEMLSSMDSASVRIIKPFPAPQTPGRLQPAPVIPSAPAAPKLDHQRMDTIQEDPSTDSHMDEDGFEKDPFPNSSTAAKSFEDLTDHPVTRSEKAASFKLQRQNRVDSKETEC

[11] = inhibition of ADAM10 peptide cleavage – biochemical, FRET peptide substrate, recombinant human ADAM10, selectivity assay for ADAM17 exosite inhibitor project, dose response (AID 743259);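 note: ADAM10 enzyme cleaving a FRET peptide substrate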
[12] = inhibition of ARNT PAS-B/TACC3 complex formation – biochemical, AlphaScreen, cherry-picked samples, confirmation (AID 651703); format: functional, Homo sapiens;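 note: His-tagged ARNT PAS-B domain paired with GST-TACC3 E629A dimer coactivator fragment; potency of inhibitors that break up the complex and lower AlphaScreen signal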
Caspase-6 = Caspase-6 (Homo sapiens, UniProt P55212); test: inhibition of CASP6 peptide cleavage – biochemical, VEID-R110 fluorescence, cherry-pick, dose response (AID 720632)
Chain of Caspase-6 (P55212 24-179 limits assumed): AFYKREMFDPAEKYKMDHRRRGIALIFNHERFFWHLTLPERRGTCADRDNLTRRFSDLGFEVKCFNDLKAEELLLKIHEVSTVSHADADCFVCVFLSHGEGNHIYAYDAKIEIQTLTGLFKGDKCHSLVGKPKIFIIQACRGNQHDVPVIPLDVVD
Chain of Caspase-6 (P55212 194-293 limits assumed): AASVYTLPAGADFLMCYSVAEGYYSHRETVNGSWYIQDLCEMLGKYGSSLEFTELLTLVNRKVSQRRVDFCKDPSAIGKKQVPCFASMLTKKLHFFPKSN

[13] = A549 cell cytotoxicity, dose response, cytotoxicity control, plate reader, cherry-pick, antagonist series (AID 743412); format: functional, cell-based
[14] = toxicity toward HepG2 liver cells – cell-based, plate reader, cherry-pick, antagonist series, cytotoxicity control, dose response (AID 743416); format: functional
[15] = blockers of bursicon-stimulated LGR2 cAMP reporter – cell-based, HEK293, CRE-luciferase reporter, cherry pick, set 2, dose response (AID 743343); format: functional;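 note: transfected cells were stimulated with diluted bursicon conditioned medium after compound addition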
[16] = blockade of melanocortin 4 receptor signaling – cell-based, plate reader, cherry pick, counter-screen for LGR2 antagonist project, dose response (AID 743444); format: functional;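 note: transfected HEK 293 cells stimulated with alpha-MSH peptide; potency of inhibitors of the alpha-MSH evoked signal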
cells [17] = format: functional, cell-based
cells [18] = format: functional, cell-based; remark: listed apart in the source
[19] = molecular target: T1, Oxysterols receptor LXR-beta; format: functional, cell-based; remark: listed apart in the source
Mucolipin-3 = molecular target: T3, Mucolipin-3 (Homo sapiens, UniProt Q8TDD5); test: Dose response cell-based high-throughput screening assay for agonists of the transient receptor potential channel ML3 (TRPML3). [Related pubchem assays: 1526, 1424, 1448 ]; format: functional
T3 sequence (Q8TDD5 whole entry): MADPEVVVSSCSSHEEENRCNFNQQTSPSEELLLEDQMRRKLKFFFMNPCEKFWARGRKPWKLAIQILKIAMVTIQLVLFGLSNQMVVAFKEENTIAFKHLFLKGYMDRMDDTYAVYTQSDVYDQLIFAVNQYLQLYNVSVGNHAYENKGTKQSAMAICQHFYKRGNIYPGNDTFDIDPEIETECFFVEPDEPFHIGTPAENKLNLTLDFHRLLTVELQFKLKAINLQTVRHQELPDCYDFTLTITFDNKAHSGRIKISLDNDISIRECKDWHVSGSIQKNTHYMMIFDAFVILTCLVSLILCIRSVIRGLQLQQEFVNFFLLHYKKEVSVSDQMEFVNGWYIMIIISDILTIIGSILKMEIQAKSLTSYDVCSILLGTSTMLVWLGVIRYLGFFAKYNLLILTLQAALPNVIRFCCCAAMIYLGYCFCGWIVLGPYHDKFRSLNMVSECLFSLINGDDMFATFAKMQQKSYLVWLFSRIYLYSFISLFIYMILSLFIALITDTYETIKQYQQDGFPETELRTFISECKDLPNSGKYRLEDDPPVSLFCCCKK

Ion channel NompC = Ion channel NompC (Danio rerio, UniProt Q7T1G6); test: Fluorescence counterscreen assay for TRPML3 agonists: dose response cell-based high-throughput screening assay to identify agonists of the transient receptor potential channel N1 (TRPN1). [Related pubchem assays: 1526, 1424, 1448 ]; format: functional
Chain of Ion channel NompC (Q7T1G6 whole entry): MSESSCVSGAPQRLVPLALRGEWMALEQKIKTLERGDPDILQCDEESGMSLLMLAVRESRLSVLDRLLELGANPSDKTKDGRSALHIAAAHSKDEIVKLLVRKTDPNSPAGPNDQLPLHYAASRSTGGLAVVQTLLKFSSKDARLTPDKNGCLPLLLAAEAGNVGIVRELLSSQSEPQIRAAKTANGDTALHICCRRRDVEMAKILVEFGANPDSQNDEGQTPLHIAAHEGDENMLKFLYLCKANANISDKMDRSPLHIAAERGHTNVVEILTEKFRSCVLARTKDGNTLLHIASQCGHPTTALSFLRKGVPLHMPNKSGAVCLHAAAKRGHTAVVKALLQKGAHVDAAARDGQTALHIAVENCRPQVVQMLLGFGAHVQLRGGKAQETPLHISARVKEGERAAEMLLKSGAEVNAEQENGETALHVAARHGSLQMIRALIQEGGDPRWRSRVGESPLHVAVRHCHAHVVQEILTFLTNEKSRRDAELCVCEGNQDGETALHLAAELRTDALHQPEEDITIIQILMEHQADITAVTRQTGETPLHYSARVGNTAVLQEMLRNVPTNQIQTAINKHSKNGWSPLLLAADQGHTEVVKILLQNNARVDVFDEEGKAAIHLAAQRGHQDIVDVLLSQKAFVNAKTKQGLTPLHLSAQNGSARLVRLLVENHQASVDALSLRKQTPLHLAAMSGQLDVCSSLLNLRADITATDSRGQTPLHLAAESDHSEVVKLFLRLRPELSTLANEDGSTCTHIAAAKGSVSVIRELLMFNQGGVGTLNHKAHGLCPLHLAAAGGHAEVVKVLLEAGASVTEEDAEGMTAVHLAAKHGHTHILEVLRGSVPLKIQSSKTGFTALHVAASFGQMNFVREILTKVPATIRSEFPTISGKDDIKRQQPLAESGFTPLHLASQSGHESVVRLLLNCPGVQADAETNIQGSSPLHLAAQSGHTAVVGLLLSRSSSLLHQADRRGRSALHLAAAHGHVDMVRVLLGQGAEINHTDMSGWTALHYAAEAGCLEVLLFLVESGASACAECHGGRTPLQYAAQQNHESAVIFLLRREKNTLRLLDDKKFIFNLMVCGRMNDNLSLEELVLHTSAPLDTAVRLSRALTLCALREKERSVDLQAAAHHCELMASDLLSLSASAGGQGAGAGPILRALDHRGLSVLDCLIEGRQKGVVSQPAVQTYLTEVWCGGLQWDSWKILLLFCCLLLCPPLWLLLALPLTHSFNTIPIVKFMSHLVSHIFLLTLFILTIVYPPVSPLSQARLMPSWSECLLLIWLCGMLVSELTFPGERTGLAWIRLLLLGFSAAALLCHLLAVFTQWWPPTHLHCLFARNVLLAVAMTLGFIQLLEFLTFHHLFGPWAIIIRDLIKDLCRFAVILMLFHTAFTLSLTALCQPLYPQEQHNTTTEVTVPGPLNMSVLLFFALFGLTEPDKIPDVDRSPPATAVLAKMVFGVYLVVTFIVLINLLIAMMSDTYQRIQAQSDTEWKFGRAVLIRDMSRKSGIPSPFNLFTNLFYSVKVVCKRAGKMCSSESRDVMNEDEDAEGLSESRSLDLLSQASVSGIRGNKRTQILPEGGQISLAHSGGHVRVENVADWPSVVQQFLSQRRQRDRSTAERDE

[20] = reduction of Shn3 3'UTR-driven luciferase in osteoblasts – cell-based, Clone20 osteoblasts, firefly luciferase, cherry-picked, dose response (AID 624132); format: functional;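 note: firefly luciferase luminescence from reporter carrying the Shn3 3'UTR in osteoblasts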
[21] = loss of viability in HepG2 cells – cell-based, CellTiter-Glo, cherry-picked, cytotoxicity control for Shn3 inhibitor project, dose response (AID 624134); format: functional
[22] = Shn3 3'UTR reporter signal decrease – cell-based, Clone20 osteoblasts, firefly luciferase, cherry-pick, set 2, Schnurri-3 inhibitor project, dose response (AID 720490); format: functional;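 note: actives lower the luminescence signal as inhibitors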
[23] = molecular target: Endoplasmic reticulum aminopeptidase 1 (Homo sapiens, UniProt Q9NZ08); test: inhibition of human ERAP1 enzyme activity – biochemical, cherry-pick, set 2, plate reader, dose response (AID 743314)
Chain of Endoplasmic reticulum aminopeptidase 1 (Q9NZ08 whole entry): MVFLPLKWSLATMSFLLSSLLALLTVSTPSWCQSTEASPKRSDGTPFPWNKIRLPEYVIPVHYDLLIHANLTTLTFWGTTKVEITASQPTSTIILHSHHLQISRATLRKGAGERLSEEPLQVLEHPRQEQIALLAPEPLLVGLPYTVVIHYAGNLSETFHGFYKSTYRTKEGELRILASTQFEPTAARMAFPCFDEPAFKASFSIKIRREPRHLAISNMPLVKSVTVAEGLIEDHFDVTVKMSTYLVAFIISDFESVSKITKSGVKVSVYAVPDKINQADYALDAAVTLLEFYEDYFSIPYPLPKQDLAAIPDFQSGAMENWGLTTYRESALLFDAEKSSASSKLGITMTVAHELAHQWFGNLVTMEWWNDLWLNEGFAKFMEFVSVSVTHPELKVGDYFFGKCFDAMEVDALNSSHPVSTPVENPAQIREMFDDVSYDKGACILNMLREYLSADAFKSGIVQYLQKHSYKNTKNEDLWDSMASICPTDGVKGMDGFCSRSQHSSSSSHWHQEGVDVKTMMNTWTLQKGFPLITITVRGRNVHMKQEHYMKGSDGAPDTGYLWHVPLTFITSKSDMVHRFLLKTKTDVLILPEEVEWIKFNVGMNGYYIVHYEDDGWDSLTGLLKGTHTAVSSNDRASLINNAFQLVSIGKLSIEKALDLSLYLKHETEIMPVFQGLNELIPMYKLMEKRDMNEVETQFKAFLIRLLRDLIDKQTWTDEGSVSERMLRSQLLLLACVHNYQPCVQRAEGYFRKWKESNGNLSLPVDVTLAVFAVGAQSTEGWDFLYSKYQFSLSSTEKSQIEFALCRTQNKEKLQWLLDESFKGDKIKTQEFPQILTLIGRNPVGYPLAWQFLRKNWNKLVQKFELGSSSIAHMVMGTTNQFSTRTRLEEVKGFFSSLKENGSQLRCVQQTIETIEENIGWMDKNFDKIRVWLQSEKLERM

Paired box protein Pax-8 = Paired box protein Pax-8 (Homo sapiens, UniProt Q06710); test: PAX8 transcriptional activity inhibition in RMG-I – RMG-I cells, luciferase, cherry-pick, dose response (AID 687027); format: functional, cell-based;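 note: luciferase reporter driven by Pax8 target thyroperoxidase promoter measured by SteadyGlo luminescence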
Chain of Paired box protein Pax-8 (Q06710 whole entry): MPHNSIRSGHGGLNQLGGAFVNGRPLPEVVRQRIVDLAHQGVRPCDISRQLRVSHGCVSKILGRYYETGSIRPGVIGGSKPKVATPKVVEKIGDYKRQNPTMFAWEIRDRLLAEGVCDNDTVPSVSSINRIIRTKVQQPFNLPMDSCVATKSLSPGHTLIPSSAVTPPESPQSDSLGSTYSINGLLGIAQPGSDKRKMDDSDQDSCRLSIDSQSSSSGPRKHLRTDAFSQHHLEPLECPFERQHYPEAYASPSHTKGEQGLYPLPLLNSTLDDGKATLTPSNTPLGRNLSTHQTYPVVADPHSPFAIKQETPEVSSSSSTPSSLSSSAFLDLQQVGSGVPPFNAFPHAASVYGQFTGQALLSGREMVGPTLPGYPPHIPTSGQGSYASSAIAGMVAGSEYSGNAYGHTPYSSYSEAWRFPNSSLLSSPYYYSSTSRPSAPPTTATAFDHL

[24] = A2780 cell killing – plate reader, dry powder samples, cytotoxicity control, dose response (AID 743046); format: functional, cell-based
[25] = OVCAR-3 cell viability loss – plate reader, dry powder samples, PAX8 inhibitor project, dose response (AID 743044); format: functional, cell-based
[26] = general cell-killing toxicity readout – plate reader, dry powder samples, cytotoxicity control for PAX8 inhibitor project, dose response (AID 743021); format: functional, cell-based
[27] = OVCAR8 cell viability loss – plate reader, dry powder samples, PAX8 project, dose response (AID 743197); format: functional, cell-based; conditions: OVCAR-8
[28] = IGROV1 cell killing – plate reader, dry powder samples, PAX8 inhibitor project, dose response (AID 743043); format: functional, cell-based; conditions: IGROV-1

Chain of Luciferin 4-monooxygenase (P08659 whole entry): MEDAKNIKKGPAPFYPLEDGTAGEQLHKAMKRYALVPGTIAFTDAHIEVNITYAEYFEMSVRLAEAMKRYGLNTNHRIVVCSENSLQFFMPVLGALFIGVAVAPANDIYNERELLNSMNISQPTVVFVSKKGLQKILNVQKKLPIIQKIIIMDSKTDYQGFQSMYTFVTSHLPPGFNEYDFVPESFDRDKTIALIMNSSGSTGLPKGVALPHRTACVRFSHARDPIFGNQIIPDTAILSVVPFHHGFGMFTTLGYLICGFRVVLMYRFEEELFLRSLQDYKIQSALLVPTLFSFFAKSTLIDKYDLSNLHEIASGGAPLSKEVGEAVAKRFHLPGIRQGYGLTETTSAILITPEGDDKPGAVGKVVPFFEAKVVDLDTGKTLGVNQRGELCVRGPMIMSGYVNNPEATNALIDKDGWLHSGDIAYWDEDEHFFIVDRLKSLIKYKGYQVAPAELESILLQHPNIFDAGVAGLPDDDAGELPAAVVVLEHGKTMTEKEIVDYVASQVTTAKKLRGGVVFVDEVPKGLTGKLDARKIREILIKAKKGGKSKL

In the case of `Oc1c(N=Nc2ccccc2)sc2ccccc12`, the EC50 [1] is reported as 1.26 µM (active), the EC50 [2] is reported as 15 µM (active) and the IC50 [3] is reported as > 67.5 µM (inactive). For the same molecule, the EC50 [4] was > 67.5 µM (inactive), the EC50 [5] was > 67.5 µM (inactive) and the EC50 (cells [6]) was > 67.5 µM (inactive).

For `Nc1c(C(=O)c2ccccc2)sc2nsc(SCCN3CCOCC3)c12`, the EC50 [7] was > 99 µM (inactive), the EC50 [8] was > 99 µM (inactive) and the AC50 [9] was 51.6 µM (active).

In the case of `Cc1ccccc1-c1nnn(Cc2ccc(F)cc2Cl)n1`, the IC50 [10] is reported as > 69.5 µM (inactive) and the IC50 [11] is reported as > 69.5 µM (inactive).

In the case of `CCOC(=O)C1CCN(C(=O)COC(=O)c2ccc([N+](=O)[O-])o2)CC1`, the AC50 [12] is reported as 88.2 µM (active) and the AC50 (Caspase-6) is reported as 18.5 µM (active).

For `Cc1ccc(Nc2nc(-c3ccccc3)cs2)nc1`, the AC50 [13] was 37.4 µM (active), the AC50 [14] was > 52 µM (inactive) and the AC50 [15] was 8.03 µM (active). For the same molecule, the AC50 [16] was 13.3 µM (active), the EC50 [5] was > 67.5 µM (inactive) and the EC50 (cells [6]) was > 67.5 µM (inactive).

For `Cc1noc(C)c1C(=O)Nc1nc2ccc(F)cc2s1`, the AC50 [9] was > 52 µM (inactive).

For `COc1ccc(-c2n[nH]c(=S)n2-c2ccc(Br)cc2)cc1OC`, the IC50 [10] was 41.6 µM (inactive).

For `COc1ccc(-c2nnc(S)n2-c2ccc(Br)cc2)cc1OC`, the IC50 [11] was > 69.5 µM (inactive).

For `OCc1ccc(N=Nc2ccccc2)cc1`, the EC50 (cells [17]) was > 350 µM (not active), the EC50 (cells [18]) was 8.65 µM (active) and the EC50 [19] was > 67.5 µM (inactive).

With `COc1ccc(NS(=O)(=O)c2ccc(OC)c(N(C)S(=O)(=O)c3ccc(Cl)cc3)c2)cc1` the EC50 (Mucolipin-3) was > 9.99 µM (not active), the EC50 (Ion channel NompC) was > 29.9 µM (not active) and the AC50 [20] was 2.92 µM (active). The AC50 [21] was 38.7 µM (active) and the AC50 [22] was 3.54 µM (active).

With `O=c1ccc2cc(OC3O[C@H](CO)[C@@H](O)[C@H](O)[C@H]3O)c(O)cc2o1` (stereo not given in full) the AC50 [23] was 2.24 µM (active).

In the case of `Oc1ccccc1-c1cc(-c2ccc(Cl)cc2)[nH]n1`, the IC50 [3] is reported as > 67.5 µM (inactive), the EC50 [4] is reported as > 67.5 µM (inactive) and the EC50 [19] is reported as > 67.5 µM (inactive).

In the case of `COc1ccc(CN(C)C[C@@H]2OCCCC[C@H](C)Oc3ccc(NC(=O)Nc4ccc(C(F)(F)F)cc4)cc3C(=O)N([C@@H](C)CO)C[C@H]2C)cc1`, the AC50 (Paired box protein Pax-8) is reported as 14.6 µM (active), the AC50 [24] is reported as 21.9 µM (active) and the AC50 [25] is reported as 2.91 µM (active). For the same molecule, the AC50 [26] was 63.1 µM (active) and the AC50 [27] was 25.2 µM (active).

With `O=C(C1CCC1)N1CC(=O)N2[C@H](CO)[C@H](c3ccc(C#CCc4ccccc4)cc3)[C@H]2C1` the AC50 (Paired box protein Pax-8) was 24.3 µM (active), the AC50 [24] was 0.324 µM (active) and the AC50 [25] was 11.4 µM (active). The AC50 [28] was 42.6 µM (active), the AC50 [26] was 48 µM (active) and the AC50 [27] was 20.4 µM (active).

Reference: ChEMBL document CHEMBL1201862, “PubChem BioAssay data set” (2004)
